According to ChEMBL document CHEMBL1201862, “PubChem BioAssay data set” (2004):
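Cells were grown in 96-well plates and exposed to each compound for 48 hours at five concentrations; endpoints were interpolated linearly between bracketing concentrations, or set to the highest concentration if not reached. Here, GI50 denotes the concentration required for 50% inhibition of growth.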 Calls of active or inactive are those of the source. Cut-off read from the data, not from the text of the source: active = GI50 up to about 1.1 µM and inactive = higher.

Assays:
Experiment in all cases: NCI tumour cell line growth inhibition, 48 h
BT-549 = tested on: BT-549
U-251 = tested on: U-251
ACHN = tested on: ACHN
SF-268 = tested on: SF-268
A549 = tested on: A549
K562 = tested on: K562
KM12 = tested on: KM12
786-0 = tested on: 786-0
SK-OV-3 = tested on: SK-OV-3
OVCAR-5 = tested on: OVCAR-5
T47D = tested on: T47D
Hs-578T = tested on: Hs-578T
NCI-H460 = tested on: NCI-H460
NCI-H226 = tested on: NCI-H226
CCRF-CEM = tested on: CCRF-CEM
SF-295 = tested on: SF-295
SK-MEL-5 = tested on: SK-MEL-5
SR = tested on: SR
IGROV-1 = tested on: IGROV-1
UO-31 = tested on: UO-31

SMILES | GI50 (BT-549) | GI50 (U-251) | GI50 (ACHN) | GI50 (SF-268) | GI50 (A549) | GI50 (K562) | GI50 (KM12) | GI50 (786-0) | GI50 (SK-OV-3) | GI50 (OVCAR-5) | GI50 (T47D) | GI50 (Hs-578T) | GI50 (NCI-H460) | GI50 (NCI-H226) | GI50 (CCRF-CEM) | GI50 (SF-295) | GI50 (SK-MEL-5) | GI50 (SR) | GI50 (IGROV-1) | GI50 (UO-31)
Oc1ccc(-c2cc(-c3cc(-c4ccc(O)cc4)no3)on2)cc1 | 17.8 µM (inactive) | 39.9 µM (inactive) | 2.81 µM (inactive) | 41.2 µM (inactive) | 50 µM (inactive) | 1.75 µM (inactive) | 11.8 µM (inactive) | > 100 µM (inactive) | > 100 µM (inactive) | > 53.3 µM (inactive) | 33.1 µM (inactive) | > 100 µM (inactive) | 41.6 µM (inactive) | > 75.9 µM (inactive) | 0.873 µM (active) | 35.1 µM (inactive) | 36.9 µM (inactive) | 19.1 µM (inactive) | 43.7 µM (inactive) | 10.8 µM (inactive)
COc1cccc(CC(=O)N2CCN(CCCc3ccccc3)CC2)c1 | 33.8 µM (inactive) | > 100 µM (inactive) | 83.8 µM (inactive) | > 100 µM (inactive) | 66.5 µM (inactive) | 33.9 µM (inactive) | > 100 µM (inactive) | > 100 µM (inactive) | > 100 µM (inactive) | > 100 µM (inactive) | 22.2 µM (inactive) | > 100 µM (inactive) | > 100 µM (inactive) | > 100 µM (inactive) | 89.3 µM (inactive) | 47.5 µM (inactive) | 23.2 µM (inactive) | 42.1 µM (inactive) | > 100 µM (inactive) | 39.1 µM (inactive)
CCN1C(=O)CS/C1=N\NC(=O)CSc1nc2ccccc2c(=O)n1CC | > 100 µM (inactive) | > 100 µM (inactive) | > 100 µM (inactive) | > 100 µM (inactive) | > 100 µM (inactive) | > 100 µM (inactive) | > 100 µM (inactive) | > 100 µM (inactive) | > 100 µM (inactive) | > 100 µM (inactive) | > 100 µM (inactive) | > 100 µM (inactive) | 10.3 µM (inactive) | > 100 µM (inactive) | > 100 µM (inactive) | > 100 µM (inactive) | > 100 µM (inactive) | > 100 µM (inactive) | > 100 µM (inactive) | > 100 µM (inactive)
Cc1cc(NS(=O)(=O)c2ccc(Nc3c4ccccc4nc4ccc(C(=O)Nc5ccc(S(=O)(=O)N=C(N)N)cc5)cc34)cc2)no1 | > 100 µM (inactive) | > 100 µM (inactive) | > 100 µM (inactive) | > 100 µM (inactive) | > 100 µM (inactive) | > 100 µM (inactive) | > 100 µM (inactive) | > 100 µM (inactive) | > 100 µM (inactive) | > 100 µM (inactive) | > 100 µM (inactive) | > 100 µM (inactive) | > 100 µM (inactive) | > 100 µM (inactive) | 66.1 µM (inactive) | > 100 µM (inactive) | > 100 µM (inactive) | > 100 µM (inactive) | > 100 µM (inactive) | > 100 µM (inactive)
CCCCCCCCCCC1OC([C@@H](O)CC[C@H](O)C2CC[C@@H](CCCCCCCC(O)CC3=CC(C)OC3=O)O2)CCC1O (stereo not given in full) | 12.4 µM (inactive) | 14.4 µM (inactive) | 6.38 µM (inactive) | 2.35 µM (inactive) | 5.21 µM (inactive) | 0.204 µM (active) | 2.58 µM (inactive) | 11.5 µM (inactive) | 7.67 µM (inactive) | > 15 µM (inactive) | 7.71 µM (inactive) | 2.68 µM (inactive) | 1.52 µM (inactive) | 14 µM (inactive) | 5.97 µM (inactive) | 0.708 µM (active) | 0.115 µM (active) | 0.0025 µM (active) | 2.61 µM (inactive) | 4.41 µM (inactive)
O=C1OC(c2ccccc2)=N/C1=C\c1cccc(F)c1 | 32.4 µM (inactive) | 38.1 µM (inactive) | > 100 µM (inactive) | 34.5 µM (inactive) | > 100 µM (inactive) | > 100 µM (inactive) | 33.5 µM (inactive) | 51.9 µM (inactive) | > 100 µM (inactive) | > 100 µM (inactive) | > 100 µM (inactive) | 36.3 µM (inactive) | 60.5 µM (inactive) | 25.9 µM (inactive) | 35.7 µM (inactive) | 40.8 µM (inactive) | 51.4 µM (inactive) | 22.9 µM (inactive) | 52.5 µM (inactive) | > 100 µM (inactive)
CC1(C)OC(=O)N(c2ccccc2)C12C=Cc1cccc([N+](=O)[O-])c1O2 (stereo not given) | > 100 µM (inactive) | 65.9 µM (inactive) | > 100 µM (inactive) | > 100 µM (inactive) | 79.1 µM (inactive) | 35.1 µM (inactive) | 58.6 µM (inactive) | > 100 µM (inactive) | 28.2 µM (inactive) | > 100 µM (inactive) | 43.4 µM (inactive) | 73.6 µM (inactive) | > 100 µM (inactive) | > 100 µM (inactive) | 37.3 µM (inactive) | 55.1 µM (inactive) | 72.8 µM (inactive) | 9.18 µM (inactive) | 96.6 µM (inactive) | 45.3 µM (inactive)
CC(C)(C)OC(=O)N1CCCC1=O | > 10 µM (inactive) | > 10 µM (inactive) | > 10 µM (inactive) | > 10 µM (inactive) | > 10 µM (inactive) | > 10 µM (inactive) | > 10 µM (inactive) | > 10 µM (inactive) | > 10 µM (inactive) | > 10 µM (inactive) | > 10 µM (inactive) | > 10 µM (inactive) | > 10 µM (inactive) | > 10 µM (inactive) | > 10 µM (inactive) | > 10 µM (inactive) | > 10 µM (inactive) | > 10 µM (inactive) | > 10 µM (inactive) | > 10 µM (inactive)
Oc1cccc2ccc(SSc3ccc4cccc(O)c4n3)nc12 | 21.1 µM (inactive) | 16.4 µM (inactive) | 15.1 µM (inactive) | 25.3 µM (inactive) | 31 µM (inactive) | 29.2 µM (inactive) | 13.7 µM (inactive) | 18.2 µM (inactive) | 16.3 µM (inactive) | 19.4 µM (inactive) | 13.2 µM (inactive) | 31.4 µM (inactive) | 19.3 µM (inactive) | > 100 µM (inactive) | 3.36 µM (inactive) | 16.6 µM (inactive) | 33.5 µM (inactive) | 23.9 µM (inactive) | 24.7 µM (inactive) | 25.8 µM (inactive)
O=C1c2ccccc2-n2c1nc1ccc([N+](=O)[O-])cc1c2=O | > 100 µM (inactive) | > 100 µM (inactive) | 58.9 µM (inactive) | 26.4 µM (inactive) | > 100 µM (inactive) | 30.1 µM (inactive) | 68.9 µM (inactive) | 46.5 µM (inactive) | > 100 µM (inactive) | > 100 µM (inactive) | 25.9 µM (inactive) | > 100 µM (inactive) | > 100 µM (inactive) | 25.6 µM (inactive) | 34.8 µM (inactive) | 24.1 µM (inactive) | 95.9 µM (inactive) | 28.8 µM (inactive) | 53.7 µM (inactive) | 42.9 µM (inactive)
